Experimental findings from patent US12643912B2, “Macrocyclic compounds, a process for their preparation and pharmaceutical compositions containing them” (LES LABORATOIRES SERVIER, priority 2020, dated 2026) are described below.

In assay [1] the test system is Nrf2 (Keap1-NRF2 nuclear translocation). In words: U2OS translocation assay (PathHunter U2OS Keap1-NRF2 Nuclear Translocation Cell Line). It counts as cell-based. Summed up: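 Enzyme-fragment complementation read-out: luminescence after 60 min of detection reagent at room temperature, following a 3 h, 37° C compound exposure of engineered U2OS Keap1-NRF2 translocation cells (1% FBS medium). Signal scaled from 1% DMSO basal to 10 μM andrographolide maximum.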

Assay [2] concerns the target T1, Keap1 (A321-C624) (h) (Homo sapiens, UniProt Q14145).
T1 construct: His-Thromb-KEAP1(A321-C624) acquired from Novalix (batch PU-P01) was immobilized covalently by amine coupling; His tag (N); thrombin cleavage site (Thromb) (N); purchased Novalix batch PU-P01
Put plainly: Surface Plasmon Resonance binding assay to Kelch domain of KEAP1. Conditions: Biacore T200, 25° C., immobilized His-Thromb-KEAP1(A321-C624), single cycle kinetics, KD=kd/ka from 1:1 fit; read-out: Keap1 (A321-C624) (h) direct/SPR (KD). How it is done: EXAMPLE 85: SURFACE PLASMON RESONANCE
Binding assay to Kelch domain of KEAP1 was performed by Surface Plasmon Resonance (SPR) on a Biacore T200 (GE Healthcare) at 25° C. using CM5 chip. His-Thromb-KEAP1(A321-C624) acquired from Novalix (batch PU-P01) was immobilized covalently by amine coupling using standard wizard protocol, at a concentration of 20 μg/mL in sodium acetate pH 5.5. The ligand was captured until 1250 RU was reached. Amine blank is used as the reference flow cell. Binding of analyte to the ligand was monitored in real time with associations of 180 seconds and a dissociation of 720 seconds. Association (ka) and dissociation (kd) rates were fitted with a simple 1:1 kinetic interaction model using Biacore T200 Evaluation Software (GE Healthcare). The equilibrium constant (KD=kd/ka) was calculated from these fitted parameters. […] The Biacore binding assay was performed with a flowrate of 50 μL/min using a running buffer of 10 mM HEPES (pH 7.4), 150 mM NaCl, 3 mM EDTA, 1 mM TCEP, 0.05% P20,5% DMSO. Double subtraction was used by subtracting both reference flow cell and previous blank cycle (with running buffer). Solvent correction was applied to correct DMSO bulk effect.

Setting [3] is: read-out: CELLULAR U2OS EC50, U2OS Keap1-NRF2 nuclear translocation cells, 3 h incubation, luminescence, normalized between 1% DMSO and 10 μM andrographolide.

Read-outs that look alike come from different tables or passages of the source.

T1 sequence (Q14145 321-624): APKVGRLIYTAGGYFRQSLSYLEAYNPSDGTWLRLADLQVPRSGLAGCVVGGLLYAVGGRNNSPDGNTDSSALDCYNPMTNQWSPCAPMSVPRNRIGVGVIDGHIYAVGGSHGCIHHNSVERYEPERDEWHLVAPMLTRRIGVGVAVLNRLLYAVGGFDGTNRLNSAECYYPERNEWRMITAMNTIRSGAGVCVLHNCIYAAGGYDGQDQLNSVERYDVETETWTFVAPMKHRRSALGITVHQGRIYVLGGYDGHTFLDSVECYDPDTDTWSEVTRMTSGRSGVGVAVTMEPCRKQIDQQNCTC

Regarding `Cc1c(Cl)cc2cc1CN1Cc3cc(ccc3OS1(=O)=O)OCCCCn1nnc3c(C)c(ccc31)C2CC(=O)O` (single isomer, unassigned) [Example 33a, [5-Chloro-4,31-dimethyl-27,27-dioxo-21,26-dioxa-27λ^6-thia-1,14,15,16-tetraazahexacyclo[20.5.3.1^3,70.1^9,130.0^12,160.0^25,29]dotriaconta-3(32),4,6,9(31),10,12,14,22,24,29-decaen-8-yl]acetic acid], the EC50 in assay [1] (setting [3]) is 94.5 nM. Besides, the Kd in assay [2] worked out at 4.55 nM.
Taken in the same sequence, the figures for `Cc1c(Cl)cc2cc1CN1Cc3cc(ccc3OS1(=O)=O)OCCCCn1nnc3c(C)c(ccc31)C2CC(=O)O` (single isomer, unassigned) [Example 33b, [5-Chloro-4,31-dimethyl-27,27-dioxo-21,26-dioxa-27λ^6-thia-1,14,15,16-tetraazahexacyclo[20.5.3.1^3,70.1^9,130.0^12,160.0^25,29]dotriaconta-3(32),4,6,9(31),10,12,14,22,24,29-decaen-8-yl]acetic acid] were 894 nM and 9.29 nM.
Take `COc1cc2cc(c1OC)CN1Cc3cc(ccc3OS1(=O)=O)OCCCCn1nnc3c(C)c(ccc31)C2CC(=O)O` (single isomer, unassigned) [Example 35a, [4,5-Dimethoxy-31-methyl-27,27-dioxo-21,26-dioxa-27λ^6-thia-1,14,15,16-tetraazahexacyclo[20.5.3.1^3,70.1^9,130.0^12,160.0^25,29]dotriaconta-3(32),4,6,9(31),10,12,14,22,24,29-decaen-8-yl]acetic acid]: in assay [1] (Homo sapiens, U2OS, 3 h, read-out: CELLULAR U2OS EC50 (nM), U2OS Keap1-NRF2 nuclear translocation cells, 3 h incubation, luminescence, normalized between 1% DMSO and 10 μM andrographolide), the EC50 was more than 3160 nM. The Kd in assay [2] was 33600 nM.
For the compound `COc1cc2cc(c1OC)CN1Cc3cc(ccc3OS1(=O)=O)OCCCCn1nnc3c(C)c(ccc31)C2CC(=O)O` (single isomer, unassigned) [Example 35b, [4,5-Dimethoxy-31-methyl-27,27-dioxo-21,26-dioxa-27λ^6-thia-1,14,15,16-tetraazahexacyclo[20.5.3.1^3,70.1^9,130.0^12,160.0^25,29]dotriaconta-3(32),4,6,9(31),10,12,14,22,24,29-decaen-8-yl]acetic acid], in assay [1] (setting [3]), the EC50 is more than 3160 nM. In addition, the Kd in assay [2] was determined as 7450 nM.
Take `Cc1cc2cc(c1Cl)CN1Cc3cc(ccc3OS1(=O)=O)OCCCCn1nnc3c(C)c(ccc31)C2CC(=O)O` (single isomer, unassigned) [Example 36a, [4-Chloro-5,31-dimethyl-27,27-dioxo-21,26-dioxa-27λ^6-thia-1,14,15,16-tetraazahexacyclo[20.5.3.1^3,70.1^9,130.0^12,160.0^25,29]dotriaconta-3(32),4,6,9(31),10,12,14,22,24,29-decaen-8-yl]acetic acid]: the EC50 in assay [1] (setting [3]) was 126 nM. Moreover, in assay [2], the Kd was determined as 9.02 nM.
Take `Cc1cc2cc(c1Cl)CN1Cc3cc(ccc3OS1(=O)=O)OCCCCn1nnc3c(C)c(ccc31)C2CC(=O)O` (single isomer, unassigned) [Example 36b, [4-Chloro-5,31-dimethyl-27,27-dioxo-21,26-dioxa-27λ^6-thia-1,14,15,16-tetraazahexacyclo[20.5.3.1^3,70.1^9,130.0^12,160.0^25,29]dotriaconta-3(32),4,6,9(31),10,12,14,22,24,29-decaen-8-yl]acetic acid]: the EC50 in assay [1] (setting [3]) is 1260 nM. Further, the Kd in assay [2] was determined as 32.5 nM.
The matching figures for `COc1c(Cl)cc2cc1CN1Cc3cc(ccc3OS1(=O)=O)OCCCCn1nnc3c(C)c(ccc31)C2CC(=O)O` (single isomer, unassigned) [Example 37a, [5-Chloro-4-methoxy-31-methyl-27,27-dioxo-21,26-dioxa-27λ^6-thia-1,14,15,16-tetraazahexacyclo[20.5.3.1^3,70.1^9,130.0^12,160.0^25,29]dotriaconta-3(32),4,6,9(31),10,12,14,22,24,29-decaen-8-yl]acetic acid]: 1300 nM and 75.1 nM.
